Measurements: ChEMBL document CHEMBL4257487, “Structure-guided design of a potent peptide inhibitor targeting the interaction between CRK and ABL kinase” (Medchemcomm, 2018)
Calls of active or inactive are those of the source. The rule behind the calls is not given here. Where a SMILES comes first, the peptide text is derived from it.

How the values were obtained:
Adapter molecule crk [1] = molecular target: T1, Adapter molecule crk (Homo sapiens, UniProt P46108); assay: Binding affinity to human c-CRK N-terminal SH3 domain expressed in Escherichia coli BL21 (DE3) by tryptophan fluorescence quenching assay
Adapter molecule crk [2] = molecular target: T1, Adapter molecule crk; assay: Binding affinity to recombinant human CRK-2 nSH3 domain (1 to 304 residues) expressed in Escherichia coli by NMR analysis
Adapter molecule crk [3] = molecular target: T1, Adapter molecule crk; assay: Binding affinity to recombinant human CRK-2 nSH3 domain (1 to 304 residues) expressed in Escherichia coli assessed as inhibition of Abl T315I mutant-mediated CRK-2 phosphorylation at Y221 residue at 1 uM after 10 to 30 mins by PAGE analysis
Adapter molecule crk [4] = molecular target: T1, Adapter molecule crk; assay: Binding affinity to recombinant human CRK-2 nSH3 domain (1 to 304 residues) expressed in Escherichia coli assessed as inhibition of interaction with Abl by measuring Abl-mediated CRK-2 phosphorylation at Y221 residue at 1 uM after 10 to 30 mins by PAGE analysis (reference value: 62%); parameters: scale not given: the % may be the effect or the level left
Adapter molecule crk [5] = molecular target: T1, Adapter molecule crk; assay: Binding affinity to recombinant human CRK-2 nSH3 domain (1 to 304 residues) expressed in Escherichia coli by tryptophan fluorescence quenching assay
Adapter molecule crk [6] = molecular target: T1, Adapter molecule crk; assay: Binding affinity to recombinant human CRK-2 nSH3 domain (1 to 304 residues) expressed in Escherichia coli at 25 degC by tryptophan fluorescence quenching assay
Adapter molecule crk [7] = molecular target: T1, Adapter molecule crk; assay: Ratio of Kd for recombinant human CRK-2 nSH3 domain (1 to 304 residues) expressed in Escherichia coli at 35 degC in presence of 1 M NaCl to Kd for recombinant human CRK-2 nSH3 domain (1 to 304 residues) expressed in Escherichia coli at 35 degC in presence of 80 mM NaCl

T1 sequence (P46108 whole entry, the tested form may be a part): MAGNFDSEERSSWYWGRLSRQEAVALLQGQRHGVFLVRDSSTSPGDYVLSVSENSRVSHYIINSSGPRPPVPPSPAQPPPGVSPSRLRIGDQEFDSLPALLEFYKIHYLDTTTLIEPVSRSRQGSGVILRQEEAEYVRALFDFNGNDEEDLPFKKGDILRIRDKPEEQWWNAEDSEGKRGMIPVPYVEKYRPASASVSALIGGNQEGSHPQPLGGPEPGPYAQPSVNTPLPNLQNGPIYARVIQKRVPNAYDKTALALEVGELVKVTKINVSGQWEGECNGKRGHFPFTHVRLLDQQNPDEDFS

For `CC(C)C[C@H](NC(=O)[C@H](C)NC(=O)[C@@H]1CCCN1C(=O)[C@@H]1CCCN1C(=O)[C@@H]1CCCN1)C(=O)N1CCC[C@H]1C(=O)N1CCC[C@H]1C(=O)N[C@@H](CCCCN)C(=O)N[C@@H](CCCCN)C(=O)N[C@@H](CCCNC(=N)N)C(=O)O`, the Kd (Adapter molecule crk [1]) was 1900 nM and the Activity (Adapter molecule crk [2]) was “Active”.

With `Cc1ccc(NC(=O)c2ccc(CN3CCN(C)CC3)cc2)cc1Nc1nccc(-c2cccnc2)n1` the inhibition (Adapter molecule crk [3]) was “inactive” and the Activity (Adapter molecule crk [4]) was 33%.

With `CC(C)C[C@H](NC(=O)[C@H](C)NC(=O)[C@@H]1CCCN1C(=O)[C@@H]1CCCN1C(=O)[C@@H]1CCCN1C(=O)[C@H](CO)NC(=O)[C@H](CC(N)=O)NC(=O)[C@@H](N)CC(=O)O)C(=O)N1CCC[C@H]1C(=O)N[C@@H](CCCCN)C(=O)N[C@@H](CCCCN)C(=O)N[C@@H](CCCNC(=N)N)C(=O)N[C@@H](CCC(N)=O)C(=O)N[C@@H](CO)C(=O)N[C@@H](Cc1ccc(O)cc1)C(=O)O` (H-DNSPPPALPKKRQSY-OH) the Kd (Adapter molecule crk [5]) was 400 nM and the Activity (Adapter molecule crk [2]) was “Active”.

For `CC(C)C[C@H](NC(=O)[C@H](C)NC(=O)[C@@H]1CCCN1C(=O)[C@@H]1CCCN1C(=O)[C@@H](N)CO)C(=O)N1CCC[C@H]1C(=O)N[C@@H](CCCCN)C(=O)N[C@@H](CCCCN)C(=O)N[C@@H](CCCNC(=N)N)C(=O)N[C@@H](CCC(N)=O)C(=O)N[C@@H](CO)C(=O)N[C@@H](Cc1ccc(O)cc1)C(=O)N[C@@H](CCCNC(=N)N)C(=O)N[C@@H](CCCNC(=N)N)C(=O)O` (H-SPPALPKKRQSYRR-OH), the Kd (Adapter molecule crk [5]) was 9 nM, the Kd (Adapter molecule crk [6]) was 9 nM and the Ratio (Adapter molecule crk [7]) was 50. The inhibition (Adapter molecule crk [3]) was “Active”, the Activity (Adapter molecule crk [4]) was 21% and the Activity (Adapter molecule crk [2]) was “Active”.
